Where two headings read alike, the source gives them in different places.
Experiments:
[1] = test system: Lamium purpureum (purple deadnettle, LAMPU); test: Greenhouse postemergence trial LAMPU; conditions: Lamium purpureum, post-emergence, read-out: % visual injury Obs
[2] = test system: Triticum aestivum (spring wheat, TRZAS); type: in vivo
[3] = test system: Matricaria inodora (false chamomile, MATIN); test: Greenhouse postemergence trial MATIN; type: in vivo; conditions: MATIN; for % visual injury, Obs: applied alone
Protocol: (§1) Seeds of the desired test plant species were planted in a 90:10% v/v (volume/volume) mixture of PRO-MIX® BX (Premier Tech Horticulture, Quakertown, PA, USA) and PROFILE® GREENS GRADE™ (Profile Products LLC, Buffalo Grove, IL, USA) planting mixture, which typically has a pH of 5.2 to 6.2 and an organic matter content of at least 50 percent, in plastic pots with a surface area of 103.2 square centimeters (cm^2). […] The plants were grown for 7-36 days (d) in a greenhouse with an approximate 14-hour (h) photo-period which was maintained at about 23° C. during the day and 22° C. during the night. Nutrients and water were added on a regular basis and supplemental lighting was provided with overhead metal halide 1000-Watt lamps as necessary. The plants were employed for testing when they reached the second or third true leaf stage.
(§2) Emulsifiable concentrates of each of each pyridine carboxylate herbicide (Compound A or Compound B) were prepared at 100 grams acid equivalent per liter (g ae/L). The emulsifiable concentrates also included a safener, cloquintocet-mexyl, at 120 grams active ingredient per liter (g ai/L), unless otherwise noted below. An aliquot of each emulsifiable concentrate was placed in a 25 mL glass vial and diluted with an aqueous mixture of 1.25% (v/v) ACTIROB® B esterified rapeseed oil (Bayer Crop Science, Research Triangle Park, NC, USA) or MSO® Concentrate with LECI-TECH® methylated soybean oil (Loveland Products, Loveland, CO, USA) to obtain concentrated stock solutions at the highest application rate for each herbicide, based upon a 12 milliliter (mL) application volume at a rate of 187 liters per hectare (L/ha). The concentrated stock solutions were further diluted with an aqueous mixture of 1.25% v/v ACTIROB® B or MSO® Concentrate with LECI-TECH® to obtain stock solutions at reduced application rates for each herbicide. Spray solutions of the herbicide combinations (Compound A or Compound B plus synthetic auxin herbicide or auxin transport inhibitor) were prepared by adding weighed amounts or aliquots of the synthetic auxin herbicide or auxin transport inhibitor to the stock solutions of Compound A or Compound B to form 12-mL spray solutions in two-way combinations.
(§3) The spray solutions were applied to the plant material with an overhead Mandel track sprayer equipped with 8002E nozzles calibrated to deliver 187 L/ha over an application area of 0.503 square meters (m^2) at a spray height of 18 inches (43 centimeters (cm)) above the average plant canopy. Control plants were sprayed in the same manner with the solvent blank. All pyridine carboxylate herbicide (component a) application rates are given as “g ae/ha” and all synthetic auxin herbicide or auxin transport inhibitor (component b) application rates are given as “g ai/ha.”
(§4) The treated plants and control plants were placed in a greenhouse as described above and watered by sub-irrigation to prevent wash-off of the test compounds. After 20-22 d, the condition of the test plants as compared with that of the control plants was determined visually and scored on a scale of 0 to 100 percent where 0 corresponds to no injury and 100 corresponds to complete kill.

[4] = test system: Triticum aestivum (winter wheat, TRZAW); test: Greenhouse postemergence crop phytotoxicity TRZAW; type: in vivo; conditions: for % visual injury Obs / visual injury, Obs / % visual injury, Obs: TRZAW; for % visual injury, Obs: applied alone; for % visual injury (crop phytotoxicity): c1-3 Compound A 7.5/10/15
[5] = test system: Veronica hederifolia (ivyleaf speedwell, VERHE); test: Greenhouse postemergence trial VERHE; type: in vivo; conditions: VERHE; for % visual injury, Obs: applied alone
[6] = test system: Ipomoea hederacea (ivyleaf morningglory, IPOHE); test: Greenhouse postemergence trial IPOHE; type: in vivo; conditions: Compound A 10 g/ha
Protocol: as §1, §2, §3, §4

[7] = Triticum aestivum (spring wheat, TRZAS), in vivo

N#CCOC(=O)c1nc(-c2ccc3cc[nH]c3c2F)c(F)c(N)c1Cl [Compound A, cyanomethyl 4-amino-3-chloro-5-fluoro-6-(7-fluoro-1H-indol-6-yl)pyridine-2-carboxylate]
pest or weed control at 10 g/ha [1]: 70%
pest or weed control at 15 g/ha [1]: 75%
TRZAS Obs (% visual injury) ([2]; Compound A 10 g/ha): 0%
TRZAS % visual injury Obs ([2]; Compound A 10 g/ha (Table 42)): 0%
TRZAS % visual injury Obs ([2]; Compound A 10 g/ha (Table 43)): 0%
TRZAS % visual injury Obs ([2]; Compound A 10 g/ha (Table 44)): 0%
% visual injury Obs ([2]; TRZAS, Compound A 10 g/ha): 0%
% visual injury, Obs ([2]; TRZAS, Compound A 10 g/ha): 0%
visual injury, Obs ([2]; TRZAS, Compound A 10 g/ha alone): 0%
% visual injury Obs ([2]; TRZAS, Compound A 15 g/ha): 0%
visual injury, Obs ([2]; TRZAS, Compound A 15 g/ha alone): 0%
% visual injury (Obs) ([2]; TRZAS, alone 10 g/ha): 0%
% visual injury Obs ([2]; TRZAS, alone 10 g/ha): 0%
% visual injury Obs ([2]; TRZAS, alone, 15 g/ha): 0%
% visual injury, Obs ([2]; TRZAS, applied alone, 10 g/ha): 0%
% visual injury, Obs ([2]; TRZAS, applied alone, 15 g/ha): 0%
% visual injury (crop phytotoxicity) [2, 7]: 0%
% visual injury, Obs (crop phytotoxicity) [2, 7]: 0%
% visual injury (crop phytotoxicity) ([2]; c1-2 Compound A 7.5/10, c3 Quinclorac 140, c4-5 A 7.5/10 + Quinclorac 140 g/ha): 0%
% visual injury (crop phytotoxicity) ([2]; c1-3 Compound A 7.5/10/15, c4-5 Fluroxypyr-MHE 100/140, c6-8, c9-11 A 7.5/10/15 + Fluroxypyr-MHE 100, 140 g/ha): 0%
% visual injury (crop phytotoxicity) ([2]; c1-3 Compound A 7.5/10/15, c4 Aminopyralid 5, c5-7 A 7.5/10/15 + Aminopyralid 5 g/ha): 0%
% visual injury (crop phytotoxicity) ([2]; c1-3 Compound A 7.5/10/15, c4 Halauxifen-methyl 6, c5-7 A 7.5/10/15 + Halauxifen-methyl 6 g/ha): 0%
visual injury, Obs ([3]; Compound A 10 g/ha alone): 60%
visual injury, Obs ([3]; Compound A 15 g/ha alone): 60%
% visual injury (Obs) ([3]; alone 10 g/ha): 93%
% visual injury Obs ([3]; alone 10 g/ha): 60%
% visual injury Obs ([3]; alone, 15 g/ha): 60%
% visual injury, Obs ([3]; 10 g/ha): 60%
% visual injury, Obs ([3]; 15 g/ha): 60%
pest or weed control at […] ([3]; Tripleurospermum inodorum, post-emergence, Compound A 7.5 g/ha, read-out: % visual injury Obs): 30%
pest or weed control at 10 g/ha ([3]; Tripleurospermum inodorum, post-emergence, Compound A 10 g/ha, read-out: % visual injury Obs): 60%
pest or weed control at 15 g/ha ([3]; Tripleurospermum inodorum, post-emergence, Compound A 15 g/ha, read-out: % visual injury Obs): 60%
% visual injury Obs ([4]; Compound A 10 g/ha): 0%
visual injury, Obs ([4]; Compound A 10 g/ha alone): 0%
% visual injury Obs ([4]; Compound A 15 g/ha): 0%
visual injury, Obs ([4]; Compound A 15 g/ha alone): 0%
% visual injury Obs ([4]; alone, 10 g/ha): 0%
% visual injury Obs ([4]; alone, 15 g/ha): 0%
% visual injury, Obs ([4]; 10 g/ha): 0%
% visual injury, Obs ([4]; 15 g/ha): 0%
% visual injury (crop phytotoxicity) ([4]; c4-5 Fluroxypyr-MHE 100/140, c6-8, c9-11 A 7.5/10/15 + Fluroxypyr-MHE 100, 140 g/ha): 0%
% visual injury (crop phytotoxicity) ([4]; c4-6 Clopyralid 30/60/120, c7-9, c10-12, c13-15 A 7.5/10/15 + Clopyralid 30, 60, 120 g/ha): 0%
% visual injury (crop phytotoxicity) ([4]; c4 Aminopyralid 5, c5-7 A 7.5/10/15 + Aminopyralid 5 g/ha): 0%
% visual injury (crop phytotoxicity) ([4]; c4 Halauxifen-methyl 6, c5-7 A 7.5/10/15 + Halauxifen-methyl 6 g/ha): 0%
% visual injury Obs ([5]; Compound A 10 g/ha): 75%
visual injury, Obs ([5]; Compound A 10 g/ha alone): 75%
visual injury, Obs ([5]; Compound A 15 g/ha alone): 80%
% visual injury Obs ([5]; alone, 10 g/ha): 75%
% visual injury Obs ([5]; alone, 15 g/ha): 80%
% visual injury, Obs ([5]; 10 g/ha): 75%
% visual injury, Obs ([5]; 15 g/ha): 80%
pest or weed control at […] ([5]; Veronica hederifolia, post-emergence, Compound A 7.5 g/ha, read-out: % visual injury Obs): 65%
pest or weed control at 10 g/ha ([5]; Veronica hederifolia, post-emergence, Compound A 10 g/ha, read-out: % visual injury Obs): 75%
pest or weed control at 15 g/ha ([5]; Veronica hederifolia, post-emergence, Compound A 15 g/ha, read-out: % visual injury Obs): 80%
IPOHE Obs (% visual injury) ([6]; without safener): 15%
% visual injury, Obs ([6]; IPOHE): 15%

Source: patent publication US12568967B2, “Compositions comprising pyridine carboxylate herbicides with synthetic auxin herbicides or auxin transport inhibitors” (priority 2018, dated 2026)
